Laboratory results published in ChEMBL document CHEMBL3091405, “Novel glycosylated endomorphin-2 analog produces potent centrally-mediated antinociception in mice after peripheral administration” (Bioorg Med Chem Lett, 2013).
Calls of active or inactive are those of the source. No cut-off for these calls is given here. Residues, ends and D or L forms follow the SMILES beside them. *: point of attachment. X1 = CC(=O)OC[C@H]1O[C@@H](*)[C@H](OC(C)=O)[C@@H](OC(C)=O)[C@@H]1OC(C)=O; βGlc = OC[C@H]1O[C@@H](*)[C@H](O)[C@@H](O)[C@@H]1O

Legend:
[1] = tested on: Plasma; experiment: Drug metabolism in mouse plasma assessed as glucuronic metabolite formation at 3 mg/kg, iv after 10 mins by mass spectrometric analysis; format: ADME, organism-based; design: dose 3 mg/kg, route intravenous; details: in vivo
[2] = tested on: Plasma; experiment: Drug metabolism in mouse plasma assessed as degycosylated metabolite formation at 3 mg/kg, iv after 10 mins by mass spectrometric analysis; format: ADME, organism-based; design: dose 3 mg/kg, route intravenous; details: in vivo
[3] = tested on: Mus musculus; experiment: Antinociceptive activity in mouse assessed as prolongation time to jump at 3 mg/kg, iv by hot plate test; format: functional, organism-based; design: dose 3 mg/kg
[4] = tested on: Mus musculus; experiment: Antinociceptive activity in mouse assessed as prolongation time to jump at 3 mg/kg, iv by hot plate test in presence of opioid receptor antagonist NALME; format: functional, organism-based; design: dose 3 mg/kg
[5] = target: Mu-type opioid receptor (Cavia porcellus, UniProt P97266); experiment: Agonist activity at mu opioid receptor in guinea pig ileum; format: tissue-based
[6] = target: Mu-type opioid receptor (Rattus norvegicus, UniProt P33535); experiment: Displacement of [3H]DAMGO from Wistar rat brain mu opioid receptor by liquid scintillation counting analysis
Sequence of Mu-type opioid receptor (Rattus norvegicus, UniProt P33535) (P33535 whole entry): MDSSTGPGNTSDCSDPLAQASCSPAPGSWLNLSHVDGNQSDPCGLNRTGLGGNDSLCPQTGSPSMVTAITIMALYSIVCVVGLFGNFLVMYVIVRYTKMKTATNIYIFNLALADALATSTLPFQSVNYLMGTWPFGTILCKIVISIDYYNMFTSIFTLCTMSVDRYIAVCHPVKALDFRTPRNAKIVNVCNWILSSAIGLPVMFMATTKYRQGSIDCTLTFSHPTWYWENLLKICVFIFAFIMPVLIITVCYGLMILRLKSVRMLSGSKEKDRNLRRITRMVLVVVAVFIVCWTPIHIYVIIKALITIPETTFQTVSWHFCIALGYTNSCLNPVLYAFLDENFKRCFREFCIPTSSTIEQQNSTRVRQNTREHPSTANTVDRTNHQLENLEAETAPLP

Sequence of Mu-type opioid receptor (Cavia porcellus, UniProt P97266) (P97266 whole entry): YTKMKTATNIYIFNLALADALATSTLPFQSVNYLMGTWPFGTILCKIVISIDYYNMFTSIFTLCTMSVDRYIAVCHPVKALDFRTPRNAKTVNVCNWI

Compound | Drug metabolism [1] | Drug metabolism [2] | Activity [3] | Activity [4] | IC50 [5] [nM] | IC50 [6] [nM]
NC(=O)[C@H](Cc1ccccc1)NC(=O)[C@H](Cc1ccc(O[C@@H]2O[C@H](CO)[C@@H](O)[C@H](O)[C@H]2O)cc1)NC(=O)[C@@H]1CCCN1C(=O)[C@@H](N)Cc1ccc(O)cc1 (H-YPY(βGlc)F-NH2) | Active | Active | Active | Active | 16.1 | 73.2
CC(=O)OC[C@H]1O[C@@H](Oc2ccc(C[C@H](NC(=O)[C@@H]3CCCN3C(=O)[C@@H](N)Cc3ccc(O)cc3)C(=O)N[C@@H](Cc3ccccc3)C(N)=O)cc2)[C@H](OC(C)=O)[C@@H](OC(C)=O)[C@@H]1OC(C)=O (H-YPY(X1)F-NH2) |  |  |  |  | > 1000 | > 1000
NC(=O)[C@H](Cc1ccccc1)NC(=O)[C@H](Cc1ccccc1)NC(=O)[C@@H]1CCCN1C(=O)[C@@H](N)Cc1ccc(O)cc1 |  |  | inactive |  |  | 
